Molecular target: GST-CCNT1 (AA 1–300) (Homo sapiens, UniProt O60563)
Experiment: AlphaLISA disruption of CCNT1-AFF4 peptide interaction
Assay type: binding

GST-CCNT1 (AA 1–300), sequence (O60563 1-300): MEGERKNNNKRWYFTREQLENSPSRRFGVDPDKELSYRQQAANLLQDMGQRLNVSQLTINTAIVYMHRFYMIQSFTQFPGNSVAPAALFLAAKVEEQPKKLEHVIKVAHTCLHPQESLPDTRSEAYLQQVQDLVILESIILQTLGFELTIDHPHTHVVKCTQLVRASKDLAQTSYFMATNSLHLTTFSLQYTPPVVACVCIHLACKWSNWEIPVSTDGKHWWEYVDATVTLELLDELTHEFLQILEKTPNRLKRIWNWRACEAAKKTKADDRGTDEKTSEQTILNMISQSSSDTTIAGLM

- Ki: 3.48 µM
SMILES: COc1cccc(C(=O)/C=C(\O)C(=O)Nc2cc(Cl)ccc2C)c1 [4a, (2Z)-N-(5-Chloro-2-methylphenyl)-2-hydroxy-4-(3-methoxyphenyl)-4-oxo-2butenamide]
